From the supplement of paper PMC13380429

Experiments:
Conditions in all cases: 72 h
[1] = tested on: Calu-3; assay: drug sensitivity score (DSS) for viability; higher = more toxic; extreme values may be limits of the assay
[2] = tested on: U2OS; assay: as above
[3] = tested on: Vero E6; assay: as above
[4] = tested on: Caco-2; assay: cell viability relative to DMSO; higher = less toxic
[5] = tested on: Calu-3; assay: as above
[6] = tested on: HepG2; assay: as above
[7] = tested on: U2OS; assay: as above
[8] = tested on: Caco-2; assay: relative viability EC50 (midpoint between 100% and the lowest measured viability); higher = less toxic
[9] = tested on: Calu-3; assay: as above
[10] = tested on: HepG2; assay: as above
[11] = tested on: U2OS; assay: as above
[12] = tested on: Caco-2; assay: drug sensitivity score (DSS) for viability; higher = more toxic; extreme values may be limits of the assay
[13] = tested on: HepG2; assay: as above
[14] = tested on: Vero E6; assay: cell viability relative to DMSO; higher = less toxic

SMILES | drug sensitivity score [1] | drug sensitivity score [2] | drug sensitivity score [3] | cell viability ([4]; 1 nM) [%] | cell viability ([4]; 10 nM) [%] | cell viability ([4]; 100 nM) [%] | cell viability ([4]; 1000 nM) [%] | cell viability ([4]; 10000 nM) [%] | cell viability ([5]; 1 nM) [%] | cell viability ([5]; 10 nM) [%] | cell viability ([5]; 100 nM) [%] | cell viability ([5]; 1000 nM) [%] | cell viability ([5]; 10000 nM) [%] | cell viability ([6]; 1 nM) [%] | cell viability ([6]; 10 nM) [%] | cell viability ([6]; 100 nM) [%] | cell viability ([6]; 1000 nM) [%] | cell viability ([6]; 10000 nM) [%] | cell viability ([7]; 1 nM) [%] | cell viability ([7]; 10 nM) [%] | cell viability ([7]; 100 nM) [%] | cell viability ([7]; 1000 nM) [%] | cell viability ([7]; 10000 nM) [%] | relative viability EC50 [8] [µM] | relative viability EC50 [9] [µM] | relative viability EC50 [10] [µM] | relative viability EC50 [11] [µM] | drug sensitivity score [12] | drug sensitivity score [13] | cell viability ([14]; 1 nM) [%] | cell viability ([14]; 10 nM) [%] | cell viability ([14]; 100 nM) [%] | cell viability ([14]; 1000 nM) [%] | cell viability ([14]; 10000 nM) [%]
NS(=O)(=O)c1cc2c(cc1Cl)NCNS2(=O)=O [hydrochlorothiazide] | 0 | 0 | 0 | – | – | – | – | – | – | – | – | – | – | – | – | – | – | – | – | – | – | – | – | – | – | – | – | – | – | – | – | – | – | –
OCCOCCN1CCN(C(c2ccccc2)c2ccc(Cl)cc2)CC1 (configuration not stated) [hydroxyzine] | 0 | 0 | – | 94.2 | 101 | 106 | 101 | 94 | 101 | 115 | 93.3 | 106 | 96.7 | 101 | 96.4 | 104 | 108 | 105 | 97.9 | 99.8 | 96.8 | 100 | 93.8 | > 10 | > 10 | > 10 | > 10 | 0 | 0 | – | – | – | – | –
Cc1cc(C)c(S(=O)(=O)Nc2cccc(C(F)(F)F)c2)c(C)c1 [m-3M3FBS] | 0 | 0 | – | 111 | 98.8 | 108 | 98.2 | 106 | 94.5 | 102 | 95.8 | 98.9 | 99.4 | 101 | 98.9 | 93 | 88.8 | 90.6 | 101 | 97 | 100 | 103 | 100 | > 10 | > 10 | > 10 | > 10 | 0 | 0.4 | – | – | – | – | –
NCc1ccc(S(N)(=O)=O)cc1 [mafenide] | 0 | – | – | 106 | 98.5 | 97.7 | 103 | 98.1 | 100 | 103 | 98.1 | 94.5 | 96.1 | 94.1 | 102 | 99.9 | 101 | 95.7 | – | – | – | – | – | > 10 | > 10 | > 10 | – | 0 | 0 | – | – | – | – | –
CS(=O)(=O)Nc1ccc([N+](=O)[O-])cc1Oc1ccccc1 [nimesulide] | 0 | 0 | 0 | – | – | – | – | – | – | – | – | – | – | – | – | – | – | – | – | – | – | – | – | – | – | – | – | – | 0 | – | – | – | – | –
NC(=O)c1cccc2cn(-c3ccc([C@@H]4CCCNC4)cc3)nc12 [niraparib] | 0 | 0 | 1.7 | 92.7 | 106 | 89.9 | 96.4 | 88.1 | 97 | 104 | 110 | 106 | 97.6 | 83.9 | 109 | 99.4 | 95.4 | 62.9 | 101 | 95.4 | 101 | 97.3 | 106 | > 10 | > 10 | – | > 10 | 0 | 2.5 | 102 | 102 | 102 | 95.8 | 73
CN(C)CCC(c1ccccc1)c1ccccn1 (configuration not stated) [pheniramine] | 0 | 0 | 5.7 | 98.1 | 96.6 | 93.6 | 91.6 | 101 | 105 | 95.3 | 99 | 94.7 | 102 | 96.4 | 99.8 | 102 | 103 | 101 | 99.9 | 98.8 | 102 | 97.6 | 109 | > 10 | > 10 | > 10 | > 10 | 0 | 0 | 91.4 | 57.3 | 101 | 77.9 | 79.5
Cc1cc2c(cc1CC(=O)c1sccc1S(=O)(=O)Nc1onc(C)c1Cl)OCO2 [sitaxentan] | – | 0 | – | 114 | 98 | 102 | 100 | 108 | – | – | – | – | – | – | – | – | – | – | 99.6 | 99.6 | 98.9 | 101 | 101 | > 10 | – | – | > 10 | 0 | – | – | – | – | – | –
CC(=O)Nc1ccc(C(=O)Nc2ccccc2N)cc1 [tacedinaline] | 6.1 | 4.6 | 3.5 | 97.3 | 95.2 | 93.4 | 99.9 | 52.7 | 101 | 99.8 | 97.1 | 74.5 | 42.3 | 104 | 85.5 | 98 | 74.4 | 40.8 | 99 | 103 | 95.1 | 90.7 | 43.1 | – | 1.14 | 1.15 | 1.91 | 2.5 | 6.3 | 99 | 104 | 97.9 | 92.8 | 54.7
CC(=O)OC[C@H]1O[C@@H](n2ccc(=O)[nH]c2=O)[C@H](OC(C)=O)[C@@H]1OC(C)=O [uridine-triacetate] | – | – | – | 101 | 110 | 114 | 97.2 | 115 | – | – | – | – | – | 106 | 113 | 106 | 109 | 95.4 | – | – | – | – | – | > 10 | – | > 10 | – | 0 | 0 | – | – | – | – | –
